The text below walks through data of patent publication EP2253620B1, “SUBSTITUTED 3-CYANOQUINOLINES AS PROTEIN TYROSINE KINASES INHIBITORS” (Wyeth Holdings LLC, priority 1998, dated 2000).

In brackets after ≈: the same amount, converted by molar mass. Where two headings read alike, the source gives them in different places.

The target in one data set is Mek and Erk (Homo sapiens, UniProt P28482+Q02750). In words: Mitogen Activated Protein Kinase (MAPK) coupled assay (Mek-Erk). In kind it is biochemical. As to conditions: coupled MEK 1 / ERK2; separate entries = separate tests; read-out: Mek and Erk. Here is the method:
Mitogen Activated Protein Kinase (MAPK) Assay
To evaluate inhibitors of the MAP (mitogen activated protein) kinase a two component coupled standard pharmacological test procedure, which measures phosphorylation of a serine/threonine residue in an appropriate sequence in the substrate in the presence and absence of a putative inhibitor, was used. Recombinant human MEK 1 (MAPKK) was first used to activate recombinant human ERK2 (MAPK) and the activated MAPK (ERK) was incubated with substrate (MBP peptide or MYC peptide) in the presence of ATP, Mg^+2 and radiolabeled ^33P ATP. The phosphorylated peptide was captured on a P 81 phosphocellulose filter (paper filter or embedded in microtiter plate) washed and counted by scintillation methods.
The peptide substrates used in the assay are MBP, peptide substrate ([…]), or synthetic Myc substrate, ([…]•5 TFA. The recombinant enzymes used were prepared as GST fusion proteins of human ERK 2 and human MEK 1. Inhibitor samples were prepared as 10X stocks in 10% DMSO and an appropriate aliquot was used to deliver either 10 ug/ml for a single point screening dose or 100, 10, 1, and 0.1 uM final concentration for a dose response curve. Final DMSO concentrations were less than or equal to 1%.
The reaction was run as follows in 50 mM Tris kinase buffer, pH 7.4 in a reaction volume of 50 ul. The appropriate volume of kinase buffer and inhibitor sample was added to the tube. Appropriate dilution of enzyme was delivered to give 2-5 ug recombinant MAPK (Erk ) per tube. The inhibitor was incubated with MAPK (Erk) for 30 min at 0 deg. C. Recombinant Mek (MAPKK) ( 0.5-2.5 ug) or fully activated Mek (0.05-0.1 units) was added to activate the Erk and incubated for 30 min at 30° C. Then substrate and gamma ^33P ATP was were added to give a final concentration of 0.5- 1 mM MBPP or 250-500 uM Myc; 0.2-0.5 uCi gamma P 33 ATP/tube; 50 µM ATP final concentration. Samples were incubated at 30°C for 30 minutes and the reaction was stopped by adding 25 µl of ice cold 10 %TCA .After samples were chilled on ice for 30 min, 20 µl of sample was transferred onto P 81 phosphocellulose filter paper or appropriate MTP with embedded P 81 filter. Filter papers or MTP were washed 2 times with a large volume of 1% acetic acid, then 2 times with water. The filters or MTP were briefly air dried before addition of scintillant and samples were counted in the appropriate scintillation counter set up for reading ^33P isotope. Samples included a positive control (activated enzyme plus substrate); a no enzyme control; a no substrate control; samples with different concentrations of putative inhibitor; and samples with reference inhibitors (other active compounds or non-specific inhibitors such as staurosporine or K252 B).
The raw data was captured as cpm. Sample replicates were averaged and corrected for background count. Mean cpm data was tabulated by group and % inhibition by a test compound was calculated as (corrected cpm control- corrected. cpm sample/control) X 100 = % inhibition. […] The results obtained for representative compounds of this invention are listed in TABLE 2 where there may be separate entries for the same compound; this is an indication that the compound was evaluated more than one time.

In data set [1] the target is T1, epidermal growth factor receptor kinase (Homo sapiens, UniProt P00533).
T1 construct: containing the EGFR cDNA encoding amino acids 645 - 1186 preceded by Met-Ala-(His)6; made in house; host or cells: Sf9 insect cells, recombinant baculovirus vHcEGFR52
Briefly: Inhibition of Epidermal Growth Factor Receptor Kinase (EGF-R) using recombinant enzyme. The following applies: averages of the individual determinations. In kind it is biochemical.
Experimental: Representative test compounds were evaluated for their ability to inhibit the phosphorylation of the tyrosine residue of a peptide substrate catalyzed by the enzyme epidermal growth factor receptor kinase. […] The enzyme used in this assay is the His-tagged cytoplasmic domain of EGFR. A recombinant baculovirus (vHcEGFR52) was constructed containing the EGFR cDNA encoding amino acids 645 - 1186 preceded by Met-Ala-(His)6. Sf9 cells in 100 mm plates were infected at an moi of 10 pfu/cell and cells were harvested 48 h post infection. A cytoplasmic extract was prepared using 1% Triton X-100 and applied to Ni-NTA column. After washing the column with 20 mM imidazole, HcEGFR was eluted with 250 mM imidazole (in 50 mM Na2HPO4, pH 8.0, 300 mM NaCl). Fractions collected were dialyzed against 10 mM HEPES, pH 7.0, 50 mM NaCl, 10% glycerol, 1ug/mL antipain and leupeptin and 0.1 mM Pefabloc SC. The protein was frozen in dry ice/methanol and stored -70°C.
Test compounds were made into 10 mg/mL stock solutions in 100% dimethylsulfoxide (DMSO). Prior to experiment, stock solutions were diluted to 500 uM with 100% DMSO and then serially diluted to the desired concentration with HEPES buffer (30 mM HEPES pH 7.4).
For the enzyme reaction, 10 µL of each inhibitor (at various concentrations) were added to each well of a 96-well plate. To this was added 3 µL of enzyme (1:10 dilution in 10mM HEPES, pH 7.4 for final conc. of 1:120). This was allowed to sit for 10 min on ice and was followed by the addition of 5 µl peptide (80 µM final conc.), 10 µl of 4X Buffer (Table A), 0.25 µL ^33P-ATP and 12 µL H2O. The reaction was allowed to run for 90 min at room temperature and was followed by spotting the entire volume on to precut P81 filter papers. The filter discs were washed 2X with 0.5% phosphoric acid and radioactivity was measured using a liquid scintillation counter.
The % inhibition of the test compound was determined for at least three different concentrations and the IC50 value was evaluated from the dose response curve. […] CPM(control) is in units of counts per minute and was a number expressing the amount of radiolabled ATP (g-^33P) incorporated into the RR-SRC peptide substrate by the enzyme after 90 minutes at room temperature in the absence of test compound as measured by liquid scintillation counting. The CPM values were corrected for the background counts produced by ATP in the absence of the enzymatic reaction. The IC50 values in TABLE 1 are averages of the individual determinations.

For a further data set, the system named is A431. Briefly: Inhibition of Cancer Cell Growth as Measured by Cell Number. In kind it is cell-based, Human. As to conditions: 48 hours exposure, Sulforhodamine B; for IC50: Homo sapiens, A-431. Here is the method: (§1) Inhibition of Cancer Cell Growth as Measured bv Cell Number
(§2) Human tumor cell lines were plated in 96-well plates (250 µl/well, 1-6 x 10^4 cells/ml) in RPMI 1640 medium, containing 5% FBS (Fetal Bovine Serum). […] After 48 hours exposure to test compounds, cells were fixed with trichloroacetic acid, and stained with Sulforhodamine B. After washing with trichloroacetic acid, bound dye was solubilized in 10 mM Tris base and optical density was determined using plate reader. Under conditions of the assay the optical density is proportional to the number of cells in the well. […] The test procedure is described in details by Philip Skehan et. al, J.Natl. Canc. Inst., 82, 1107-1112 (1990). […] Information about some of the cell lines used in these test procedures is available from the American Type Tissue Collection: Cell Lines and Hybridomas, 1994 Reference Guide, 8th Edition.

The next data set has as its system SW620. The data set is described as above. In kind it is cell-based, Human. As to conditions: 48 hours exposure, Sulforhodamine B; for IC50: Homo sapiens, SW-620. Here is the method:
as §1, §2

Another data set has as its system MDAMB435. Described as above. In kind it is cell-based, Human. As to conditions: 48 hours exposure, Sulforhodamine B; for IC50: Homo sapiens, MDA-MB-435. Here is the method:
as §1, §2

A further data set relates to SKBR3. The data set is described as above. In kind it is cell-based, Human. The following applies: 48 hours exposure, Sulforhodamine B; for IC50: Homo sapiens, SK-BR-3. Here is the method:
as §1, §2

The next data set concerns the target erbB2 (Homo sapiens, UniProt P04626). Briefly: erbB2 inhibition at a single concentration. As to conditions: read-out: erbB2 % Inh 2 µg/mL. In kind it is biochemical.
The target of data set [2] is Epithelial Cell Kinase (ECK) (Homo sapiens, UniProt P29317). Briefly: Inhibition of Epithelial Cell Kinase (ECK) tyrosine kinase activity. In kind it is biochemical. Here is the method:
In this standard pharmacological test procedure, a biotinylated peptide substrate is first immobilized on neutravidin-coated microtiter plates. The test drug, the Epithelial Cell Kinase (ECK), Mg^++, sodium vanadate (a protein tyrosine phosphatase inhibitor), and an appropriate buffer to maintain pH (7.2) are then added to the immobilized substrate-containing microtiter wells. ATP is then added to initiate phosphorylation. After incubation, the assay plates are washed with a suitable buffer leaving behind phosphorylated peptide which is exposed to horse radish peroxidase (HRP)-conjugated anti-phosphotyrosine monoclonal antibody. The antibody-treated plates are washed again and the HRP activity in individual wells is quantified as a reflection of degree of substrate phosphorylation. […] Multiple entries for a given compound indication it was tested multiple times.

In a further data set the test system is Her2/3T3. Briefly: Inhibition of Cancer Cell Growth as Measured by Cell Number. In kind it is cell-based. As to conditions: 48 hours exposure, Sulforhodamine B. Here is the method:
as §1, §2

The next data set relates to 3T3. The data set is described as above. In kind it is cell-based. As to conditions: 48 hours exposure, Sulforhodamine B; for IC50: Mus musculus, NIH3T3. Here is the method:
as §1, §2

For data set [3], the system named is Human Epidermoid Tumors (A431). Briefly: In Vivo Inhibition of the Growth of Human Epidermoid Tumors (A431) in mice. The following applies: for Relative Tumor Growth Day 7 / % T/C Day 7 / Relative Tumor Growth Day 14 / % T/C Day 14 / Relative Tumor Growth Day 20 / % T/C Day 20 / Relative Tumor Growth Day 28 / % T/C Day 28 / S/T (# of Survivors/# of Treated): Table 4, days 1 through 10; for % T/C Day 7 / % T/C Day 14 / % T/C Day 20 / % T/C Day 28: * = p < 0.01; for S/T (# of Survivors/# of Treated): Day +28 post tumor staging. Here is the method:
In Vivo Inhibition of the Growth of Human Epidermoid Tumors (A431)
BALB/c nu/nu female mice (Charles River, Wilmington, MA) were used in the in vivo standard pharmacological test procedures. Human epidermoid carcinoma cells A-431 (American Type Culture Collection, Rockville, Maryland # CRL-155) were grown in vitro as described above. A unit of 5 X 10^6 cells were injected SC into mice. […] Control animals received no drug. […] […] The %T/C (Tumor/Control) is determined by dividing the relative tumor growth of the treated group by the relative tumor growth of the placebo group and multiplying by 100.

T1 sequence (P00533 669-1210): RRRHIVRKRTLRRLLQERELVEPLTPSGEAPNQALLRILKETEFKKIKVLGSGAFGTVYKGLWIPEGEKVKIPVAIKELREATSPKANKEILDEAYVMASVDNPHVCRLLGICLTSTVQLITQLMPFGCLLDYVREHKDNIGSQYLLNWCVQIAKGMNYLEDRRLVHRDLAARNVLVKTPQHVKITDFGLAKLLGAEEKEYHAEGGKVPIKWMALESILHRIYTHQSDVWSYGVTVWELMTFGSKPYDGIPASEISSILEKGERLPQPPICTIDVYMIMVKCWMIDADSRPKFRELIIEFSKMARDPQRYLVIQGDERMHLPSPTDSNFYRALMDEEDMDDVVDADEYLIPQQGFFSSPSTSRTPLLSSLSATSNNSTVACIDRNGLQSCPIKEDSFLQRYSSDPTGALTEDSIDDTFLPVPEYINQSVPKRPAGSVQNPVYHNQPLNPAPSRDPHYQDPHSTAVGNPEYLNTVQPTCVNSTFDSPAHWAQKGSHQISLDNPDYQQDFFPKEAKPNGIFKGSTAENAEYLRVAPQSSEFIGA
Chain of Epithelial Cell Kinase (ECK) (P29317 24-976, species assumed): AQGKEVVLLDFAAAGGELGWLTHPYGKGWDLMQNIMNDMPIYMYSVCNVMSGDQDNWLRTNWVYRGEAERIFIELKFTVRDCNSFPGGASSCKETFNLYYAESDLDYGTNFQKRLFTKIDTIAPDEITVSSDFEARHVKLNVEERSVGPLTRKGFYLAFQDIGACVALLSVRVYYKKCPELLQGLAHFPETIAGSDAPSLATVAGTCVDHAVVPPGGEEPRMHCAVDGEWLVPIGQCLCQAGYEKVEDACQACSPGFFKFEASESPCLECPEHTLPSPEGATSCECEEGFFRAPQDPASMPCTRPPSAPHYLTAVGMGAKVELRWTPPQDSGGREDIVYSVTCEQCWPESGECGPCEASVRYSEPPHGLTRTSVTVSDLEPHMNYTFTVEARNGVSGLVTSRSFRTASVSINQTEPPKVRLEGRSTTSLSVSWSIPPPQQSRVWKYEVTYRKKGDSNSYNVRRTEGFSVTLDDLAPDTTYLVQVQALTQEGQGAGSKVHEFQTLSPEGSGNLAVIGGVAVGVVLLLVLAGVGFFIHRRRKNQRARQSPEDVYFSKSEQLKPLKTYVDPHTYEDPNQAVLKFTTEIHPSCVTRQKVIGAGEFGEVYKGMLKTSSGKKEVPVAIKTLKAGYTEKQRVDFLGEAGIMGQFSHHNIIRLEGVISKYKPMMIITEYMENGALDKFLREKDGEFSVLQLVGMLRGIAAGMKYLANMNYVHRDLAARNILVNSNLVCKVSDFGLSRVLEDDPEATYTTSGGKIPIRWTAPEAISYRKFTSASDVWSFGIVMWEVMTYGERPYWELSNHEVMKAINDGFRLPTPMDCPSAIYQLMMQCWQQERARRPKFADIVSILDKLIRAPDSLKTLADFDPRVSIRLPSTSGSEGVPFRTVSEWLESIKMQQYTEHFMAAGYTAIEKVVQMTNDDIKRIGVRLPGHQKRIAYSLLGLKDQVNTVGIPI
Chain of erbB2 (P04626 23-1255): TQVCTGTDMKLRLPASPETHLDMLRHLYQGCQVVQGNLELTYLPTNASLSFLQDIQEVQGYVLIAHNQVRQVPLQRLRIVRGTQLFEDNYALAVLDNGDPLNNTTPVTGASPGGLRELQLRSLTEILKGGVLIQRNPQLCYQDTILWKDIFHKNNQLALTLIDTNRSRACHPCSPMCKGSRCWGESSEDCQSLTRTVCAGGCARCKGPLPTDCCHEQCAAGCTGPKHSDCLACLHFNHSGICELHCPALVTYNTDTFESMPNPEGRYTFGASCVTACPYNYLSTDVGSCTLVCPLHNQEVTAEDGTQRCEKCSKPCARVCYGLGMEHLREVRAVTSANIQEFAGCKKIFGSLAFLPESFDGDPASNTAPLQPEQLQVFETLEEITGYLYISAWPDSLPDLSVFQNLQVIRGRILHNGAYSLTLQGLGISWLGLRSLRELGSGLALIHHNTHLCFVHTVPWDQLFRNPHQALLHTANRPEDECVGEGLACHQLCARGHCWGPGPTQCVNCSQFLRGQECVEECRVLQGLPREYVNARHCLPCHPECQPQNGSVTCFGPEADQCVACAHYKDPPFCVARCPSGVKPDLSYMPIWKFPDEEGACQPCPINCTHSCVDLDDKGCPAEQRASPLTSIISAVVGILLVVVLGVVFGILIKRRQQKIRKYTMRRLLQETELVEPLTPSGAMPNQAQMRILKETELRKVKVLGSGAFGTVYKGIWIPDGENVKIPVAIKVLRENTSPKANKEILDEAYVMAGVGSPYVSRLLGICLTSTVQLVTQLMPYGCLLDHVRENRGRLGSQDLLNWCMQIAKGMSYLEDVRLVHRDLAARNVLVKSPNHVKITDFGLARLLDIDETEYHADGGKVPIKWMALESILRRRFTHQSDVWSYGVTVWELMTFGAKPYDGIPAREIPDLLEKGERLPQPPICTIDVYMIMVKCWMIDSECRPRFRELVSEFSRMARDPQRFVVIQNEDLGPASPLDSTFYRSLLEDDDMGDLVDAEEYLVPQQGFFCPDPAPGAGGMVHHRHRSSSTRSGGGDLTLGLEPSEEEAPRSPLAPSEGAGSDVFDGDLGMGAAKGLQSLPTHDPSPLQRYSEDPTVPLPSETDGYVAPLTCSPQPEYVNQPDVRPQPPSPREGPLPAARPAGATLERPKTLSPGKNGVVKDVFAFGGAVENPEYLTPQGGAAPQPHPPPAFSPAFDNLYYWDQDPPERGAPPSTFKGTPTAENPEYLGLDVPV
Chain of Mek and Erk (Q02750 whole entry): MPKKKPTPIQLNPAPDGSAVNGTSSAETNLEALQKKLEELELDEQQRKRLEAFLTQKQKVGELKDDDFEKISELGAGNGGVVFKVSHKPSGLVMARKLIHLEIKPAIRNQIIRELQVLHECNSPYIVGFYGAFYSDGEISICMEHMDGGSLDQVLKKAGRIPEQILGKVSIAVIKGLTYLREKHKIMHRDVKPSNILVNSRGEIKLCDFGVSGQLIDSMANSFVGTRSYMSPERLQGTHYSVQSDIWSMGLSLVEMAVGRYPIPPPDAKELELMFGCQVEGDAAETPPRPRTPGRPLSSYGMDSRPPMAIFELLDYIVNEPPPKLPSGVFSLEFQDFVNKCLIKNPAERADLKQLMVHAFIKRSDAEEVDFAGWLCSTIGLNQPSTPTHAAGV
Chain of Mek and Erk (P28482 2-360): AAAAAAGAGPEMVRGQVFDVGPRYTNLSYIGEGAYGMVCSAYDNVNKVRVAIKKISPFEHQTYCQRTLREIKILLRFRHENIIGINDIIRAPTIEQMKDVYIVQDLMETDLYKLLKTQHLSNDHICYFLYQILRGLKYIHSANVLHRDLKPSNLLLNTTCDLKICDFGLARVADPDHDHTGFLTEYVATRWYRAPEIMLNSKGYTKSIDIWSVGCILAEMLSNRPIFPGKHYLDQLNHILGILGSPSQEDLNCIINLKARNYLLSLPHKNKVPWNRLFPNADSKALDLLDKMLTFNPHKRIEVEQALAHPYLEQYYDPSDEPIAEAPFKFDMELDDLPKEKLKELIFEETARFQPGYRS

Turning to `COCCOCC#CC(=O)Nc1ccc2ncc(C#N)c(Nc3cccc(Br)c3)c2c1` [Example 72, 4-(2-Methoxy-ethoxy)-but-2-ynoic acid [4-(3-bromo-phenylamino)-3-cyano-quinolin-6-yl]-amide], the IC50 at Mek and Erk was over 100 µM; in data set [1], 6 nM; with A431, 0.9 µg/mL (≈ 1.88 µM); in the data set with SW620, 0.4 µg/mL (≈ 0.834 µM); in the data set on MDAMB435 it was 3.5 µg/mL (≈ 7.3 µM); in the data set on SKBR3, 0.8 µg/mL (≈ 1.67 µM). The IC50 in [2] was over 41.7 µM. Further, the inhibition at 2 µg/mL on erbB2 was determined as 96%.
For `COC[C@@H]1CCCN1CC=CC(=O)Nc1cc2c(Nc3ccc(F)c(Cl)c3)c(C#N)cnc2cc1OC.Cl.Cl` [Example 90, (S)-4-(2-Methoxymethyl-pyrrolidin-1-yl)-but-2-enoic acid [4-(3-chloro-4-fluoro-phenylamino)-3-cyano-7-methoxy-quinolin-6-yl]-amide dihydrochloride], the IC50 was 0.329 µg/mL in the data set with Her2/3T3; 2.1 µg/mL in the data set on 3T3; 0.234 µg/mL in the data set on A431; 1.24 µg/mL with SW620; 1.74 µg/mL in the data set with MDAMB435; 0.148 µg/mL with SKBR3.
For `COc1cc2ncc(C#N)c(Nc3ccc(F)c(Cl)c3)c2cc1NC(=O)C=CCN1CCCC(CO)C1.Cl` (stereo not drawn) [Example 91, 4-(3-Hydroxymethyl-piperidin-1-yl)-but-2-enoic acid [4-(3-chloro-4-fluoro-phenylamino)-3-cyano-7-methoxy-quinolin-6-yl]-amide hydrochloride], the IC50 in the data set with Her2/3T3 was 0.375 µg/mL; in the data set with 3T3, 2.87 µg/mL; in [1], 15 nM; in the data set with A431 it was 0.232 µg/mL; with SW620 it was 1.73 µg/mL; in the data set on MDAMB435, 1.83 µg/mL. For the same molecule, in the data set with SKBR3, the IC50 is 0.181 µg/mL.
On to `COc1cc2ncc(C#N)c(Nc3ccc(F)c(Cl)c3)c2cc1NC(=O)C=CCN1CCC2(CC1)OCCO2` [Example 92, 4-(1,4-Dioxa-8-aza-spiror[4.5]dec-8-yl)-but-2-enoic acid [4-(3-chloro-4-fluoro-phenylamino)-3-cvano-7-methox-quinolin-6-yl]-amide], for which the “IC50 Her2/3T3” value in the data set with Her2/3T3 worked out at 0.35 µg/mL (≈ 0.634 µM). Further, the “IC50 3T3” value with 3T3 amounted to 2.79 µg/mL (≈ 5.05 µM). Also, in data set [3] (10 mg/kg/dose PO), the “Relative Tumor Growth Day 7” value amounted to 3.94, the “% T/C Day 7” value worked out at 72%, the “Relative Tumor Growth Day 14” value was determined as 10.41 and the “% T/C Day 14” value was 100%. Besides, in data set [3] (10 mg/kg/dose PO), the “Relative Tumor Growth Day 20” value turned out to be 14.76, the “% T/C Day 20” value amounted to 119%, the “Relative Tumor Growth Day 28” value stood at 22.51 and the “% T/C Day 28” value was determined as 159%. For the same molecule, in data set [3] (10 mg/kg/dose PO), the “S/T (# of Survivors/# of Treated)” value is 5/5. In [3] (40 mg/kg/dose PO), the “Relative Tumor Growth Day 7” value is recorded as 1.49, the “% T/C Day 7” value is 27* %, the “Relative Tumor Growth Day 14” value worked out at 1.58 and the “% T/C Day 14” value is given as 15* %. In data set [3] (40 mg/kg/dose PO), the “Relative Tumor Growth Day 20” value came out at 2.60, the “% T/C Day 20” value is listed as 21* %, the “Relative Tumor Growth Day 28” value was found to be 6.22 and the “% T/C Day 28” value is on record as 44%. Besides, the “S/T (# of Survivors/# of Treated)” value in [3] (40 mg/kg/dose PO) is recorded as 5/5. For the same molecule, the “inhibition of tumor growth in vivo” value in [3] (given orally at 40 mg/Kg) was “effective inhibitor of tumor growth in vivo”. In the data set with A431, the “IC50 A431” value was 0.283 µg/mL (≈ 0.513 µM). The “IC50 SW620” value in the data set with SW620 is 2.51 µg/mL (≈ 4.55 µM). Also, the “IC50 MDAMB435” value with MDAMB435 was determined as 3.32 µg/mL (≈ 6.01 µM). Further, the “IC50 SKBR3” value with SKBR3 is listed as 0.188 µg/mL (≈ 0.341 µM).
As for `C=CCN(C)CC#CC(=O)Nc1ccc2ncc(C#N)c(Nc3cccc(Br)c3)c2c1` [Example 77, N-[4-[(3-Bromophenyl)amino]-3-cyano-6-quinolinyl]-4-(N-allyl-N-methylamino)-2-butynamide], the IC50 is over 100 µM at Mek and Erk; 6 nM in [1]; 0.03 µg/mL (≈ 0.0632 µM) in the data set with A431; 0.1 µg/mL (≈ 0.211 µM) with SW620; 0.1 µg/mL (≈ 0.211 µM) with MDAMB435; 0.02 µg/mL (≈ 0.0422 µM) in the data set on SKBR3. In data set [2] (IC50 = concentration that inhibits substrate phosphorylation by 50%), the IC50 amounted to 42.2 µM. Besides, the inhibition at 2 µg/mL on erbB2 was determined as 105%.
